The structures appear in SMILES notation. Bounds are passed on as bounds.

One assay deals with LNCaP/AR cells. The experiment in a line: Inhibition of the proliferation of LNCap/AR cells (CCK-8). The format is cell-based. The settings on record: 144 h; LNCaP/AR cells, 6 days culture, CCK-8; read-out: LNCap/AR IC50. An excerpt:
1. Biological Assay of the Inhibition on the Proliferation of LNCap/AR Cells
(1) Experimental materials and instruments: LNCaP/AR cell line and 22RV1 cell line (provided by Sichuan Kangcheng Biotechnology Co., Ltd.) Fetal bovine serum FBS (Gibco, Cat. No. 10099-141) 0.01M PBS (Biosharp, Cat. No. 162262) RIPM1640 medium (Hyclone, Cat. No. 308090.01) Penicillin-Streptomycin (Hyclone, Cat. No. SV30010) Cell counting kit-8 (Signalway Antibody, Cat. No. CP002) DMSO (Sigma, Cat. No. D5879) Centrifuge Tube, 15 ml (Excell Bio, Cat. No. CS015-0001) Cell Culture Dish, (Excell Bio, Cat. No. CS016-0128) 96-well cell culture plate (Corning, Cat. No. 3599) Microplate reader (Thermo Multiskan MK3 type)
(2) Experimental Methods:
a. Preparation of Buffer Cell culture medium: RIPM1640 medium, 10% FBS, 1% Pen Strep: PBS buffer: PBS powder was dissolved in 2 L of ultrapure water and sterilized. b. Experimental Procedures 1) LNCaP/AR cells were subcultured in cell culture media, and then the cells in good growth condition were seeded in a 96-well plate at 80 μL/well (1000 cells/well), and cultured overnight in a 37° C., 5% CO2 cell incubator. 2) The drug was prepared into a 10 mM stock solution with dimethyl sulfoxide (DMSO). Prior to use, the stock solution was diluted in a ratio of […] with DMSO, and then diluted at a 3-fold gradient to obtain 9 serial concentrations. Then, each concentration of compound was further diluted in a ratio of 1:200 with the culture medium (to ensure that the DMSO concentration in the culture system was 0.1%), and two wells were set for each concentration. 20 μL of the diluted compound solution was added to the well of the cell culture (with a final concentration of 10 μM, 3.3 μM, 1.1 μM . . . ), and then the plate was gently tapped to thoroughly mix. In addition, the experiment included 3 negative control wells only containing cells and 3 blank control wells only containing culture medium (6 wells were each added with DMSO diluted in a ratio of 1:200 with 20 μL of culture medium). c. Result Detection: 1) After culturing for 6 days, 10 μL of CCK-8 was added to each well, and the plate was further incubated for 1 h in a 37° C., 5% CO2 cell incubator. 2) The absorbance (OD value) was measured at 450 nm with a multifunctional microplate reader. 3) The data was analyzed by the Dose-response-inhibition equation in the software GraphPad Prism5, and the IC50 value was obtained. 2. Biological assay of the inhibition on the proliferation of other drug-resistant prostate cancer cells
With `CC(=O)O[C@@H]1C[C@@H](C(=O)N[C@@H](C)c2ccc(-c3scnc3C)cc2)N(C(=O)[C@@H](NC(=O)COCCCCCN(c2ccc(-n3ccnc3)c(Br)c2)c2cc(-c3c(C)noc3C)cnc2C)C(C)(C)C)C1` [Compound 48, (3R,5S)-1-((S)-2-(2-((5-((3-bromo-4-(1H-imidazol-1-yl)phenyl)(5-(3,5-dimethylisoxazol-4-yl)-2-methylpyridin-3-yl)amino)pentyl)oxy)acetamido)-3,3-dimethylbutanol)-5-((S)-1-(4-methylthiazol-5-yl)phenyl)ethyl)carbamoyl)pyrrolidine-3-yl acetate], the IC50 was in the range of 501 to 2000 nM. The same measure, in the same setting: then `Cc1ncc(-c2c(C)noc2C)cc1N(CCCCCOCC(=O)N[C@H](C(=O)N1C[C@H](O)C[C@H]1C(=O)N[C@@H](C)c1ccc(-c2scnc2C)cc1)C(C)(C)C)c1ccc(-n2ccnc2)c(Br)c1` [Compound 49, (2S,4R)-1-((S)-2-(2-((5-((3-bromo-4-(1H-imidazol-1-yl)phenyl)(5-(3,5-dimethylisoxazol-4-yl)-2-methylpyridin-3-yl)amino)pentyl)oxy)acetamido)-3,3-dimethylbutyryl)-4-hydroxy-N—((S)-1-(4-(4-methylthiazol-5-yl)phenyl)ethyl)pyrrolidine-2-formamide], with 501 to 2000 nM; and `CC(=O)O[C@@H]1C[C@@H](C(=O)N[C@@H](C)c2ccc(-c3scnc3C)cc2)N(C(=O)[C@@H](NC(=O)COCCN2CCC(CN(c3ccc(-n4ccnc4)c(Br)c3)c3cc(-c4c(C)noc4C)ccc3C)CC2)C(C)(C)C)C1` [Compound 50, (3R,5S)-1-((S)-2-(2-(4-((3-bromo-4-(1H-imidazol-1-yl)phenyl) (5-(3,5-dimethylisoxazol-4-yl)-2-methylphenyl)amino)methyl)piperidin-1-yl)ethoxy)acetamido)-3,3-dimethylbutyryl)-5-((S)-1-(4-methylthiazol-5-yl)phenyl)ethyl)carbamoyl)pyrrolidine-3-yl acetate], with 501 to 2000 nM. Same read-out and setting: as for `CC(=O)O[C@@H]1C[C@@H](C(=O)N[C@@H](C)c2ccc(-c3scnc3C)cc2)N(C(=O)[C@@H](NC(=O)COCCN2CC(CN(c3ccc(-n4ccnc4)c(Br)c3)c3cc(-c4c(C)noc4C)ccc3C)C2)C(C)(C)C)C1` [Compound 51, (3R,5S)-1-((S)-2-(2-(3-((3-bromo-4-(1H-imidazol-1-yl)phenyl) (5-(3,5-dimethylisoxazol-4-yl)-2-methylphenyl)amino)methyl)azetidine-1-yl)ethoxy)acetamido)-3,3-dimethylbutanol)-5-((S)-(4-methylthiazol-5-yl)phenyl)ethyl)carbamoyl)pyrrolidine-3-yl acetate], the figure is above 2000 nM; as for `Cc1cn(-c2ccc(N(CCCCCOCC(=O)N[C@H](C(=O)N3C[C@H](O)C[C@H]3C(=O)N[C@@H](C)c3ccc(-c4scnc4C)cc3)C(C)(C)C)c3cc(-c4c(C)noc4C)ccc3C)cc2Br)cn1` [Compound 53], below 100 nM; as for `CC(=O)O[C@@H]1C[C@@H](C(=O)N[C@@H](C)c2ccc(-c3scnc3C)cc2)N(C(=O)[C@@H](NC(=O)COCCOCCN(c2ccc(-n3ccnc3)c(Br)c2)c2cc(-c3c(C)noc3C)ccc2C)C(C)(C)C)C1` [Compound 54], above 2000 nM.

In the case of `Cc1ccc(-c2c(C)noc2C)cc1N(CCOCCOCC(=O)N[C@H](C(=O)N1C[C@H](O)C[C@H]1C(=O)N[C@@H](C)c1ccc(-c2scnc2C)cc1)C(C)(C)C)c1ccc(-n2ccnc2)c(Br)c1` [Compound 55], the IC50 was above 2000 nM. Regarding `CC(=O)O[C@@H]1C[C@@H](C(=O)N[C@@H](C)c2ccc(-c3scnc3C)cc2)N(C(=O)[C@@H](NC(=O)COCCCCCN(c2ccc(-n3ccnc3)cc2)c2cc(-c3c(C)noc3C)ccc2C)C(C)(C)C)C1` [Compound 84, (3R,5S)-1-((S)-2-(2-((S-((4-(1H-imidazol-1-yl)phenyl)(5-(3,5-dimethylisoxazol-4-yl)-2-methylphenyl)amino)pentyl)oxy)acetylamino)-3,3-dimethylbutyryl)-5-(((S)-1-(4-(4-methylthiazol-5-yl)phenyl)ethyl)aminoformyl)pyrrolidinyl-3-yl acetate], the IC50 is 501 to 2000 nM.

Staying with this assay, now noted: LNCaP/AR cells, 6 days culture, CCK-8; read-out: LNCap/AR IC50.
For the compound `CC(=O)O[C@@H]1C[C@@H](C(=O)N[C@@H](C)c2ccc(-c3scnc3C)cc2)N(C(=O)[C@@H](NC(=O)COCCCCCN(c2ccc(-n3cnc(C)c3)c(Br)c2)c2cc(-c3c(C)noc3C)ccc2C)C(C)(C)C)C1` [Compound 52, (3R,5S)-1-((S)-2-(2-((5-((3-bromo-4-(4-methy-1H-imidazol-1-yl)phenyl)(5-(3,5-dimethylisoxazol-4-yl)-2-methylphenyl)amino)pentyl)oxy)acetamido)-3,3-dimethylbutyryl)-5-((S)-1-(4-methylthiazol-5-yl)phenyl)ethyl)carbamoyl)pyrrolidine-3-yl acetate], the IC50 lay within 101 to 500 nM.

As for `COc1ccc(N(CCCCCOCC(=O)N[C@H](C(=O)N2C[C@H](OC(C)=O)C[C@H]2C(=O)N[C@@H](C)c2ccc(-c3scnc3C)cc2)C(C)(C)C)c2cc(-c3c(C)noc3C)ccc2C)cc1` [Compound 56, (3R,5S)-1-((S)-2-(2-((5-((5-(3,5-dimethylisoxazol-4-yl)-2-methylphenyl)(4-methoxyphenyl)amino)pentyl)oxy)acetamido)-3,3-dimethylbutyryl)-5-((S)-1-(4-(4-methylthiazol-5-yl)phenyl)ethyl)carbamoyl)pyrrolidine-3-yl acetate], the IC50 fell in the range of 101 to 500 nM. Turning to `CCn1nc(C)c(-c2ccc(C)c(N(CCCCCOCC(=O)N[C@H](C(=O)N3C[C@H](OC(C)=O)C[C@H]3C(=O)N[C@@H](C)c3ccc(-c4scnc4C)cc3)C(C)(C)C)c3ccc(C#N)c(Cl)c3)c2)c1C` [Compound 82, (3R,5S)-1-((S)-2-(2-((5-((3-chloro-4-cyanophenyl)(5-(1-ethyl-3,5-dimethyl-1H-pyrazol-4-yl)-2-methylphenyl)amino)pentyl)oxy)acetamido)-3,3-dimethylbutyryl)-5-((S)-1-(4-methylthiazol-5-yl)phenyl)ethyl)carbamoyl)pyrrolidine-3-yl acetate], the IC50 lay within 101 to 500 nM.

For `Cc1ccc(-c2c(C)noc2C)cc1N(CCCCCOCC(=O)N[C@H](C(=O)N1C[C@H](O)C[C@H]1C(=O)N[C@@H](C)c1ccc(-c2scnc2C)cc1)C(C)(C)C)c1ccc(-n2ccnc2)cc1` [Compound 83, (2S,4R)-1-((S)-2-(2-((5-((4-(1H-imidazol-1-yl)phenyl)(5-(3,5-dimethylisoxazol-4-yl)-2-methylphenyl)amino)pentyl)oxy)acetylamino)-3,3-dimethylbutyryl)-4-hydroxy-N—((S)-1-(4-(4-methylthiazol-5-yl)phenyl)ethyl)-pyrrolidinyl-2-formamide], the IC50 was below 100 nM.

Staying with this assay, now noted: LNCaP/AR, 144 h, read-out: LNCap/AR IC50.
For `Cc1ccc(-c2c(C)noc2C)cc1N(CCCCCOCC(=O)N[C@H](C(=O)N1C[C@H](O)C[C@H]1C(=O)N[C@@H](C)c1ccc(-c2scnc2C)cc1)C(C)(C)C)c1ccc(C#N)c(Cl)c1` [Compound 58], the IC50 was 101 to 500 nM. As for `Cc1ccc(-c2c(C)noc2C)cc1N(CCCCCN1C(=O)CCC(N2Cc3cc(N)ccc3C2=O)C1=O)c1ccc(C#N)c(Cl)c1` (stereo not drawn) [Compound 59, 4-((5-(3-(5-amino-1-oxoisoindolin-2-yl)-2,6-dioxopiperidin-1-yl)pentyl)(5-(3,5-dimethylisoxazol-4-yl)-2-methylphenyl)amino)-2-chlorobenzonitrile], the IC50 was in the range of 501 to 2000 nM.

On to `CCN(c1ccc(C#N)c(Cl)c1)c1cc(-c2c(C)nn(CCCCCOCC(=O)N[C@H](C(=O)N3C[C@H](OC(C)=O)C[C@H]3C(=O)N[C@@H](C)c3ccc(-c4scnc4C)cc3)C(C)(C)C)c2C)ccc1C` [Compound 81, (3R,5S)-1-((S)-2-(2-((5-(4-(3-((3-chloro-4-cyanophenyl)(ethyl)amino)-4-methylphenyl)-3,5-dimethyl-1H-pyrazol-1-yl)pentyl)oxy)acetamido)-3,3-dimethylbutyryl)-5-((S)-1-(4-methylthiazol-5-yl)phenyl)ethyl)carbamoyl)pyrrolidine-3-yl acetate], for which the IC50 is 501 to 2000 nM.

For the origin of these results see patent publication US20220257774A1, “AROMATIC AMINE AR AHD BET TARGETING PROTEIN DEGRADATION CHIMERA COMPOUND AND USE” (HINOVA PHARMACEUTICALS INC., priority 2019, published 2022).
